Measurements from patent US8058242B2, “Chimeric proteins with natriuretic activity” (The University of Queensland, priority 2004, dated 2011).
Positions of bridges follow the written chain, without caps; N, C: chain ends. Residues, ends and D or L forms follow the SMILES beside them.

Key:
[1] = molecular target: T1, Natriuretic Peptide Receptor-A (NPR-A) signaling in MDCK cells (Canis lupus familiaris, UniProt A0A8I3MHU3); type: cell-based, canine; settings: stimulation of cGMP accumulation in MDCK cells; for EC50: read-out: EC50 (M) ± Standard Error
T1 sequence (A0A8I3MHU3 32-1060): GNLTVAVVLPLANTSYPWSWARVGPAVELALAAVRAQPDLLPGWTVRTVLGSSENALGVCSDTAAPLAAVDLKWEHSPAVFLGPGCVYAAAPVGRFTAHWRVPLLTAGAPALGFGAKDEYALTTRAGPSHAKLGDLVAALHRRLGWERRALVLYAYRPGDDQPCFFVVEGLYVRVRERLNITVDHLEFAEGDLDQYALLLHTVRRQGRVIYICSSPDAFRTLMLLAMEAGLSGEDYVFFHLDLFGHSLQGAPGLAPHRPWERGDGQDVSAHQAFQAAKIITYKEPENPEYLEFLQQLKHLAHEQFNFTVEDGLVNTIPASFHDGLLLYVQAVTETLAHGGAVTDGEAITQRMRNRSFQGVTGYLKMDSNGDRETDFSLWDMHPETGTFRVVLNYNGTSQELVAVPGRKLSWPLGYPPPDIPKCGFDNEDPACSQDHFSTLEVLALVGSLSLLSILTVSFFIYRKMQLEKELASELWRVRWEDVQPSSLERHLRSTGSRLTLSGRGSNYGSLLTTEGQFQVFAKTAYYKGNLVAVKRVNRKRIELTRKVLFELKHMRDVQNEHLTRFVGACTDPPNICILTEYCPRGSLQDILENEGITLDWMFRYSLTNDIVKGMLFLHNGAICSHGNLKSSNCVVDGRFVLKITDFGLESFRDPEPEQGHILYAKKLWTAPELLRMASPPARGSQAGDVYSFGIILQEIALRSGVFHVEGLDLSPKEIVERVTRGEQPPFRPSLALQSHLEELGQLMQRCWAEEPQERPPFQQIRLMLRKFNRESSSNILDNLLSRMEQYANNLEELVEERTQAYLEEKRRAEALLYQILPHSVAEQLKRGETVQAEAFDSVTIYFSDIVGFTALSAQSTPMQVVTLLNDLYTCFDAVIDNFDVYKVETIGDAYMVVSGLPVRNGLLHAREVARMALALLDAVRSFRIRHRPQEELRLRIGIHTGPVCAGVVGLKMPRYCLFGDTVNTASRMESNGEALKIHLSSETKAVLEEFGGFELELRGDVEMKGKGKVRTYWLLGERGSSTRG

[2] = system: conscious rabbits; experiment: Blood pressure and heart rate in conscious rabbits, intravenous infusion dose-response (Example 8)
[3] = after a 2 hour recovery period, Table 10B

| Compound | −Log10 EC50 (pEC50) ± Standard Error [1] | EC50 [1] | MAP at final dose ([2]; Table 10B) | Recovery (MAP) [2, 3] | Recovery Delta SED (MAP) [2, 3] | Treatment Effect, change of mean blood pressure during the infusion ([2]; final dose, Table 10B, groups 2B and 2C) | reduction of MAP compared to vehicle, in words ([2]; highest dose) |
| --- | --- | --- | --- | --- | --- | --- | --- |
| CC[C@H](C)[C@H](NC(=O)[C@H](CCCCN)NC(=O)[C@H](CO)NC(=O)[C@H](CC(=O)O)NC(=O)[C@@H](N)CO)C(=O)NCC(=O)N[C@@H](CC(N)=O)C(=O)NCC(=O)N[C@H]1CSSC[C@@H](C(=O)N[C@@H](CC(N)=O)C(=O)N[C@@H](CCCNC(=N)N)C(=O)N[C@H](C(=O)N[C@@H](CCSC)C(=O)N[C@@H](CCC(N)=O)C(=O)N[C@@H](CC(N)=O)C(=O)N2CCC[C@H]2C(=O)N2CCC[C@H]2C(=O)N[C@@H](CCCCN)C(=O)N[C@@H](CCCCN)C(=O)N[C@@H](Cc2ccccc2)C(=O)N[C@@H](CO)C(=O)NCC(=O)N[C@@H](CCC(=O)O)C(=O)O)[C@@H](C)CC)NC(=O)CNC(=O)[C@H](CC(C)C)NC(=O)CNC(=O)[C@H](CO)NC(=O)[C@H](C(C)C)NC(=O)[C@H](CO)NC(=O)[C@H](CCCNC(=N)N)NC(=O)[C@H]([C@@H](C)CC)NC(=O)[C@H](CCCNC(=N)N)NC(=O)[C@H](CC(=O)O)NC(=O)[C@H](CC(C)C)NC(=O)[C@@H]2CCCN2C(=O)[C@H](Cc2ccccc2)NC(=O)CNC(=O)[C@H](Cc2ccccc2)NC1=O [TNPc R-18] (H-SDSKIGNGCFGFPLDRIRSVSGLGCNRIMQNPPKKFSGE-OH; disulfide 9-25; N-terminus assumed) | 6.777 ± 0.5812 | 7e-07 M | 63.5 mm Hg | 67.4 mm Hg | 3.8 ± 1.6 mm Hg | −9.0 mm Hg | did significantly reduce MAP |
| CC[C@H](C)[C@H](NC(=O)[C@H](CCCCN)NC(=O)[C@H](CO)NC(=O)[C@H](CC(=O)O)NC(=O)[C@@H](N)CO)C(=O)NCC(=O)N[C@@H](CC(N)=O)C(=O)NCC(=O)N[C@H]1CSSC[C@@H](C(=O)N[C@@H](CC(N)=O)C(=O)N[C@@H](CCCNC(=N)N)C(=O)N2CCC[C@H]2C(=O)N[C@@H](CCSC)C(=O)N[C@@H](CCC(N)=O)C(=O)N[C@@H](CC(N)=O)C(=O)N2CCC[C@H]2C(=O)N2CCC[C@H]2C(=O)N[C@@H](CCCCN)C(=O)N[C@@H](CCCCN)C(=O)N[C@@H](Cc2ccccc2)C(=O)N[C@@H](CO)C(=O)NCC(=O)N[C@@H](CCC(=O)O)C(=O)O)NC(=O)CNC(=O)[C@H](CC(C)C)NC(=O)CNC(=O)[C@H](CO)NC(=O)[C@H](C(C)C)NC(=O)[C@H](CO)NC(=O)CNC(=O)[C@H]([C@@H](C)CC)NC(=O)[C@H](CCCNC(=N)N)NC(=O)[C@H](CC(=O)O)NC(=O)[C@H](CC(C)C)NC(=O)[C@@H]2CCCN2C(=O)[C@H](Cc2ccccc2)NC(=O)CNC(=O)[C@H](Cc2ccccc2)NC1=O [Peptide I28P-TNPc] (H-SDSKIGNGCFGFPLDRIGSVSGLGCNRPMQNPPKKFSGE-OH; disulfide 9-25; N-terminus assumed) | 5.995 ± 0.2450 | 1.19e-06 M | – | – | – | – | – |
| CC[C@H](C)[C@@H]1NC(=O)[C@H](CCCNC(=N)N)NC(=O)[C@H](CC(=O)O)NC(=O)[C@H]([C@@H](C)CC)NC(=O)[C@H](CCCCN)NC(=O)[C@H](Cc2c[nH]cn2)NC(=O)CNC(=O)[C@H](Cc2ccccc2)NC(=O)[C@@H](NC(=O)CNC(=O)[C@H](CC(N)=O)NC(=O)[C@@H]2CCCN2C(=O)[C@@H]2CCCN2C(=O)CNC(=O)[C@H](CCCCN)NC(=O)[C@H](CCCCN)NC(=O)[C@@H]2CCCN2C(=O)[C@@H]2CCCN2C(=O)[C@H](CCCCN)NC(=O)[C@H](CC(N)=O)NC(=O)[C@H](CC(=O)O)NC(=O)CN)CSSC[C@@H](C(=O)N[C@@H](CC(N)=O)C(=O)N[C@@H](CCCCN)C(=O)N[C@H](C(=O)N[C@@H](CC(=O)O)C(=O)N[C@@H](CC(=O)O)C(=O)N[C@@H](CC(N)=O)C(=O)N[C@@H](CCCCN)C(=O)NCC(=O)O)C(C)C)NC(=O)CNC(=O)[C@H](CC(C)C)NC(=O)CNC(=O)[C@H](CO)NC(=O)[C@H](Cc2c[nH]cn2)NC(=O)[C@H](CO)NC(=O)CNC1=O [Lebetin] (H-GDNKPPKKGPPNGCFGHKIDRIGSHSGLGCNKVDDNKG-OH; disulfide 14-30; N-terminus and C-terminus assumed) | 7.637 ± 0.1619 | 2.67e-08 M | – | – | – | – | – |
| CC[C@H](C)[C@H](NC(=O)[C@H](CCCCN)NC(=O)[C@H](CO)NC(=O)[C@H](CC(=O)O)NC(=O)[C@@H](N)CO)C(=O)NCC(=O)N[C@@H](CC(N)=O)C(=O)NCC(=O)N[C@H]1CSSC[C@@H](C(=O)N[C@@H](CC(N)=O)C(=O)N[C@@H](CCCNC(=N)N)C(=O)N[C@H](C(=O)N[C@@H](CCSC)C(=O)N[C@@H](CCC(N)=O)C(=O)N[C@@H](CC(N)=O)C(=O)N[C@@H](CCCNC(=N)N)C(=O)N2CCC[C@H]2C(=O)N[C@@H](CCCCN)C(=O)N[C@@H](CCCCN)C(=O)N[C@@H](Cc2ccccc2)C(=O)N[C@@H](CO)C(=O)NCC(=O)N[C@@H](CCC(=O)O)C(=O)O)[C@@H](C)CC)NC(=O)CNC(=O)[C@H](CC(C)C)NC(=O)CNC(=O)[C@H](CO)NC(=O)[C@H](C(C)C)NC(=O)[C@H](CO)NC(=O)CNC(=O)[C@H]([C@@H](C)CC)NC(=O)[C@H](CCCNC(=N)N)NC(=O)[C@H](CC(=O)O)NC(=O)[C@H](CC(C)C)NC(=O)[C@@H]2CCCN2C(=O)[C@H](Cc2ccccc2)NC(=O)CNC(=O)[C@H](Cc2ccccc2)NC1=O [Peptide P32R-TNPc] (H-SDSKIGNGCFGFPLDRIGSVSGLGCNRIMQNRPKKFSGE-OH; disulfide 9-25; N-terminus assumed) | 7.680 ± 0.5322 | 9.91e-08 M | – | – | – | – | – |
